Test results from US20210238225A1, “PEPTIDOMIMETIC INHIBITORS OF THE PEPTIDYL-PROLYL CIS/TRANS ISOMERASE (PIN1)” (DANA-FARBER CANCER INSTITUTE, INC., priority 2018, published 2021).
Read-outs that look alike come from different tables or passages of the source. Non-standard residues stand in square brackets, D forms with d. Residues, ends and D or L forms follow the SMILES beside them. *: point of attachment. Phe(3,5-F2) = N[C@@H](Cc1cc(F)cc(F)c1)C(=O)O; Morpholine(3S-CO) = O=C(O)[C@@H]1COCCN1; Phe(4-F) = N[C@@H](Cc1ccc(F)cc1)C(=O)O; 2Nal = N[C@@H](Cc1ccc2ccccc2c1)C(=O)O; Bta = N[C@@H](Cc1csc2ccccc12)C(=O)O; NH(4-Me-benzyl) = Cc1ccc(CN*)cc1; pS = N[C@@H](COP(=O)(O)O)C(=O)O; β3hE = N[C@@H](CCC(=O)O)CC(=O)O; β3hF = N[C@H](CC(=O)O)Cc1ccccc1; Cit = NC(=O)NCCC[C@H](N)C(=O)O; aThr = C[C@H](O)[C@H](N)C(=O)O; Pip = O=C(O)[C@@H]1CCCCN1; Fluoroacetyl = O=C(CF)*; Acryloyl = C=CC(=O)*; X3 = C=CS(=O)(=O)*; X4 = CN(c1ccccc1)*; ClAc = O=C(CCl)*; X1 = O=C(C1CO1)*

Molecular target: Pin1 (GST-Pin1) (Homo sapiens, UniProt Q13526)
Assay: Fluorescence polarization (FP) assay, binding to Pin1
Settings: competition with fluorescein-labeled peptide probe, 12 hours pre-incubation at 4° C., Kenakin Ki equation

Sequence of Pin1 (GST-Pin1) (Q13526 whole entry): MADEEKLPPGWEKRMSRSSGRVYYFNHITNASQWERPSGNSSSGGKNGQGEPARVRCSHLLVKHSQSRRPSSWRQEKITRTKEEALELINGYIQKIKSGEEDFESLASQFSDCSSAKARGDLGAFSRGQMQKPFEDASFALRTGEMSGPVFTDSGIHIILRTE

Ki (read-out: Ki, μM (FP Assay)) [µM]	Structure (SMILES)	Ki (Ki, μM (FP Assay)) [µM]
> 10	C=CC(=O)N[C@@H](Cc1ccccc1)C(=O)N1CCCC[C@H]1C(=O)N[C@@H](Cc1c[nH]c2ccccc12)C(=O)N[C@@H](CCCNC(N)=O)C(=O)NCc1ccc(C)cc1 [Compound 11-35, (S)—N—((S)-3-(1H-indol-3-yl)-1-(((S)-1-((4-methylbenzyl)amino)-1-oxo-5-ureidopentan-2-yl)amino)-1-oxopropan-2-yl)-1-(acryloyl-L-phenylalanyl)piperidine-2-carboxamide] (Acryloyl-F[Pip]W[Cit]-{NH(4-Me-benzyl)})	–
–	COC(=O)CC[C@@H](NC(=O)CCl)C(=O)N1CCCC[C@H]1C(=O)N[C@@H](Cc1c[nH]c2ccccc12)C(=O)N[C@@H](Cc1ccc(F)cc1)C(=O)NCc1ccc(C)cc1 [Compound 11-16, Methyl (R)-4-(2-chloroacetamido)-5-((S)-2-(((S)-1-(((S)-3-(4-fluorophenyl)-1-((4-methyl-benzyl)amino)-1-oxopropan-2-yl)amino)-3-(1H-indol-3-yl)-1-oxopropan-2-yl)carbamoyl)-piperidin-1-yl)-5-oxopentanoate] (ClAc-[dE](OMe)[Pip]W[Phe(4-F)]-{NH(4-Me-benzyl)})	> 10
0.23	NC(=O)[C@H](CO)NC(=O)[C@H](Cc1ccc2ccccc2c1)NC(=O)[C@@H]1CCCCN1C(=O)[C@H](CCC(=O)O)NC(=O)CCl [Compound 2b-12, (S)-5-((S)-2-(((S)-1-(((S)-1-Amino-3-hydroxy-1-oxopropan-2-yl)amino)-3-(naphthalen-2-yl)-1-oxopropan-2-yl)carbamoyl)piperidin-1-yl)-4-(2-chloroacetamido)-5-oxopentanoic acid] (ClAc-E[Pip][2Nal]S-NH2)	–
> 10	C=CC(=O)N[C@@H](CC(=O)O)C(=O)N1CCCC[C@H]1C(=O)N[C@@H](Cc1ccc2ccccc2c1)C(=O)N[C@@H](CCC(N)=O)C(N)=O [Compound 2-35, (S)-3-Acrylamido-4-((S)-2-(((S)-1-(((S)-1,5-diamino-1,5-dioxopentan-2-yl)amino)-3-(naphthalen-2-yl)-1-oxopropan-2-yl)carbamoyl)piperidin-1-yl)-4-oxobutanoic acid] (Acryloyl-D[Pip][2Nal]Q-NH2)	–
> 10	CC(=O)N[C@@H](Cc1ccccc1)C(=O)N1CCCC[C@H]1C(=O)N[C@@H](Cc1c[nH]c2ccccc12)C(=O)N[C@@H](CCCNC(N)=O)C(=O)NCc1ccc(C)cc1 [Compound 11-36, (S)—N—((S)-3-(1H-Indol-3-yl)-1-(((S)-1-((4-methylbenzyl)amino)-1-oxo-5-ureidopentan-2-yl)amino)-1-oxopropan-2-yl)-1-(acetyl-L-phenylalanyl)piperidine-2-carboxamide] (Ac-F[Pip]W[Cit]-{NH(4-Me-benzyl)})	–
> 10	N=C(N)NCCC[C@H](NC(=O)C[C@H](Cc1ccccc1)NC(=O)[C@@H]1CCCCN1C(=O)[C@H](CCC(=O)O)NC(=O)CCl)C(N)=O [Compound 2b-15, (S)-5-((S)-2-(((S)-4-(((S)-1-Amino-5-guanidino-1-oxopentan-2-yl)amino)-4-oxo-1-phenylbutan-2-yl)carbamoyl)piperidin-1-yl)-4-(2-chloroacetamido)-5-oxopentanoic acid] (ClAc-E[Pip][β3hF]R-NH2)	–
> 10	C=CC(=O)N[C@@H](CCC(=O)O)C(=O)N1CCCC[C@H]1C(=O)N[C@@H](Cc1ccc2ccccc2c1)C(=O)N[C@@H](CCC(N)=O)C(N)=O [Compound 2b-1, (S)-4-Acrylamido-5-((S)-2-(((S)-1-(((S)-1,5-diamino-1,5-dioxopentan-2-yl)amino)-3-(naphthalen-2-yl)-1-oxopropan-2-yl)carbamoyl)piperidin-1-yl)-5-oxopentanoic acid] (Acryloyl-E[Pip][2Nal]Q-NH2)	–
0.143	C=CS(=O)(=O)N[C@@H](Cc1ccccc1)C(=O)N1CCCC[C@H]1C(=O)N[C@@H](Cc1c[nH]c2ccccc12)C(=O)N[C@@H](CCCNC(N)=O)C(=O)NCc1ccc(C)cc1 [Compound 14, (S)—N—((S)-3-(1H-indol-3-yl)-1-(((S)-1-((4-methylbenzyl)amino)-1-oxo-5-ureidopentan-2-yl)amino)-1-oxopropan-2-yl)-1-((vinylsulfonyl)-L-phenylalanyl)piperidine-2-carboxamide] (X3-F[Pip]W[Cit]-{NH(4-Me-benzyl)})	–
–	COC(=O)CC[C@H](NC(=O)CCl)C(=O)N1CCCC[C@H]1C(=O)N[C@@H](Cc1c[nH]c2ccccc12)C(=O)N[C@@H](CCCNC(N)=O)C(=O)N(C)c1ccccc1 [Compound 11-15, Methyl (S)-5-((S)-2-(((S)-3-(1H-indol-3-yl)-1-(((S)-1-(methyl(phenyl)amino)-1-oxo-5-ureidopentan-2-yl)amino)-1-oxopropan-2-yl)carbamoyl)piperidin-1-yl)-4-(2-chloroacetamido)-5-oxopentanoate] (ClAc-E(OMe)[Pip]W[Cit]-X4)	0.15
> 10	C=CC(=O)N[C@@H](CCC(=O)O)C(=O)N1CCCC[C@H]1C(=O)N[C@@H](Cc1ccc2ccccc2c1)C(=O)N[C@@H](CCCNC(=N)N)C(N)=O [Compound 2b-16, (S)-4-Acrylamido-5-((S)-2-(((S)-1-(((S)-1-amino-5-guanidino-1-oxopentan-2-yl)amino)-3-(naphthalen-2-yl)-1-oxopropan-2-yl)carbamoyl)piperidin-1-yl)-5-oxopentanoic acid] (Acryloyl-E[Pip][2Nal]R-NH2)	–
–	N=C(N)NCCC[C@H](NC(=O)[C@H](Cc1ccc2ccccc2c1)NC(=O)[C@@H]1CCCCN1C(=O)[C@H](CCC(=O)O)NC(=O)CF)C(N)=O [Compound 6b-1, (S)-5-((S)-2-(((S)-1-(((S)-1-Amino-5-guanidino-1-oxopentan-2-yl)amino)-3-(naphthalen-2-yl)-1-oxopropan-2-yl)carbamoyl)piperidin-1-yl)-4-(2-fluoroacetamido)-5-oxopentanoic acid] (Fluoroacetyl-E[Pip][2Nal]R-NH2)	> 10
> 10	NC(=O)CC[C@H](NC(=O)[C@H](Cc1ccc2ccccc2c1)NC(=O)[C@@H]1COCCN1C(=O)[C@H](CCC(=O)O)NC(=O)CCl)C(N)=O [Compound 2b-5, (S)-4-(2-Chloroacetamido)-5-((S)-3-(((S)-1-(((S)-1,5-diamino-1,5-dioxopentan-2-yl)amino)-3-(naphthalen-2-yl)-1-oxopropan-2-yl)carbamoyl)morpholino)-5-oxopentanoic acid] (ClAc-E[Morpholine(3S-CO)][2Nal]Q-NH2)	–
0.3	C[C@H](O)[C@H](NC(=O)[C@H](Cc1ccc2ccccc2c1)NC(=O)[C@@H]1CCCCN1C(=O)[C@H](CCC(=O)O)NC(=O)CCl)C(N)=O [Compound 2-7, (S)-5-((S)-2-(((S)-1-(((2S,3S)-1-Amino-3-hydroxy-1-oxobutan-2-yl)amino)-3-(naphthalen-2-yl)-1-oxopropan-2-yl)carbamoyl)piperidin-1-yl)-4-(2-chloroacetamido)-5-oxopentanoic acid] (ClAc-E[Pip][2Nal][aThr]-NH2)	–
0.106	NC(=O)NCCC[C@H](NC(=O)[C@H](Cc1ccc2ccccc2c1)NC(=O)[C@@H]1CCCCN1C(=O)C[C@H](CCC(=O)O)NC(=O)CCl)C(N)=O [Compound 2-12, (S)-6-((S)-2-(((S)-1-(((S)-1-Amino-1-oxo-5-ureidopentan-2-yl)amino)-3-(naphthalen-2-yl)-1-oxopropan-2-yl)carbamoyl)piperidin-1-yl)-4-(2-chloroacetamido)-6-oxohexanoic acid] (ClAc-[β3hE][Pip][2Nal][Cit]-NH2)	–
–	COC(=O)CC[C@H](NC(=O)CCl)C(=O)N1CCCC[C@H]1C(=O)N[C@@H](Cc1c[nH]c2ccccc12)C(=O)N[C@@H](Cc1cc(F)cc(F)c1)C(=O)NCc1ccc(C)cc1 [Compound 11-24, Methyl (S)-4-(2-chloroacetamido)-5-((S)-2-(((S)-1-(((S)-3-(3,5-difluorophenyl)-1-((4-methyl-benzyl)amino)-1-oxopropan-2-yl)amino)-3-(1H-indol-3-yl)-1-oxopropan-2-yl)carbamoyl)piperidin-1-yl)-5-oxopentanoate] (ClAc-E(OMe)[Pip]W[Phe(3,5-F2)]-{NH(4-Me-benzyl)})	> 10
4.17	COC(=O)CC[C@H](NC(=O)C1CO1)C(=O)N1CCCC[C@H]1C(=O)N[C@@H](Cc1c[nH]c2ccccc12)C(=O)N[C@@H](CCCNC(N)=O)C(N)=O (stereo partly drawn) [Compound 3, Methyl (4S)-5-((S)-2-(((S)-1-(((S)-1-amino-1-oxo-5-ureidopentan-2-yl)amino)-3-(1H-indol-3-yl)-1-oxopropan-2-yl)carbamoyl)piperidin-1-yl)-4-(oxirane-2-carboxamido)-5-oxopentanoate] (X1-E(OMe)[Pip]W[Cit]-NH2)	–
0.004	NC(=O)NCCC[C@H](NC(=O)[C@H](Cc1c[nH]c2ccccc12)NC(=O)[C@@H]1CCCCN1C(=O)[C@H](COP(=O)(O)O)NC(=O)CCl)C(N)=O [Compound 2-21, (S)-3-((S)-2-(((S)-1-(((S)-1-Amino-1-oxo-5-ureidopentan-2-yl)amino)-3-(1H-indol-3-yl)-1-oxopropan-2-yl)carbamoyl)piperidin-1-yl)-2-(2-chloroacetamido)-3-oxopropyl dihydrogen phosphate] (ClAc-[pS][Pip]W[Cit]-NH2)	–

Structure (SMILES)	Ki (read-out: Ki, μM (FP Assay)) [µM]	Ki (Ki, μM (FP Assay)) [µM]
Cc1ccc(CNC(=O)[C@H](CCCNC(N)=O)NC(=O)[C@H](Cc2c[nH]c3ccccc23)NC(=O)[C@@H]2CCCCN2C(=O)[C@H](Cc2ccccc2)NCC#N)cc1 [Compound 12, (S)—N—((S)-3-(1H-indol-3-yl)-1-(((S)-1-((4-methylbenzyl)amino)-1-oxo-5-ureidopentan-2-yl)amino)-1-oxopropan-2-yl)-1-((cyanomethyl)-L-phenylalanyl)piperidine-2-carboxamide]	> 10	–
NC(=O)CC[C@H](NC(=O)[C@H](Cc1csc2ccccc12)NC(=O)[C@@H]1CCCCN1C(=O)[C@H](CCC(=O)O)NC(=O)CCl)C(N)=O [Compound 2b-8, (S)-5-((S)-2-(((S)-3-(Benzo[6]thiophen-3-yl)-1-(((S)-1,5-diamino-1,5-dioxopentan-2-yl)amino)-1-oxopropan-2-yl)carbamoyl)piperidin-1-yl)-4-(2-chloroacetamido)-5-oxopentanoic acid] (ClAc-E[Pip][Bta]Q-NH2)	2.83	–
